How the values were obtained:
Sprague-Dawley male rats = assay: Diuretic action of parenteral formulations, intraperitoneal administration in rats (24 h urine volume and Na+); type: in vivo, rat; settings: for urine output: 24 h urine, n=6, mean±SD; for urine volume voided over 24 hours compared with placebo: intraperitoneal, furosemide 2, 4, 6 mg/kg (P≦0.01), metolazone 2 mg/kg in 2 different formulations
Protocol: Sprague-Dawley male rats (400 to 500 g) were used for the in vivo experiments. The rats were housed at a controlled temperature (22° C.), fed regularly and had free access to water. Rats were divided into 7 groups with 6 animals per group for the purposes of the study. The rats were deprived of food and water for 24 hours before beginning the study. After this fasting period, normal saline ([…]) was given by oral route. […] All rats were placed in metabolic cages for urine collection. Urine was collected for 24 hours after injection, and the volume measured and the (Na^+) concentration in urine were determined using an ion-specific electrode method, NOVA CRT (NOVA Biomedical, Waltham, Mass.) All data are presented as mean±SD of n observations. For statistical comparison, one-way analysis or variance ANOVA or Student t test was employed. A two-sided P value≦0.05 was considered significant.

[1] = cited from earlier work

Q: What does the source list for `NS(=O)(=O)c1cc(C(=O)O)c(NCc2ccco2)cc1Cl` [Furosemide, furosemide]?
A: urine output (Sprague-Dawley male rats; 2 mg/kg intraperitoneally): 9 ± 1 mL/day; urine output (Sprague-Dawley male rats; 4 mg/kg intraperitoneally): 14 ± 2 mL/day; urine output (Sprague-Dawley male rats; 6 mg/kg intraperitoneally): 17 ± 2 mL/day; urine volume voided over 24 hours compared with placebo (Sprague-Dawley male rats): significantly greater

Q: Which results are given for `Cc1ccccc1N1C(=O)c2cc(S(N)(=O)=O)c(Cl)cc2NC1C` (stereo not shown) [Metolazone, 7 chloro-1,2,3,4-tetrahydro-2-methyl-3-(-2-methylphenyl)-4-oxo-6-quinazoline sulfonamide]?
A: urine output (Sprague-Dawley male rats; 2 mg/kg intraperitoneally): 16 ± 3 mL/day; urine volume voided over 24 hours compared with placebo (Sprague-Dawley male rats): greater in each instance; solubility in water [1]: sparingly soluble

From US9427398B2, “Parenteral solutions containing metolazone” (Academic Pharmaceuticals Incorporated, priority 2008, dated 2016)
